We go through ten compounds from US7462717B2, “C6-and C9-substituted chromeno[4,3-c]isoxazoline derivatives and their use as anti-depressants” (Janssen Pharmaceutica N.V., priority 2002, dated 2008).

For one test, the target named is T1, hα2A receptor (Homo sapiens, UniProt P08913).
T1 construct: expressed in transfected cells
T1 sequence (P08913 1-465): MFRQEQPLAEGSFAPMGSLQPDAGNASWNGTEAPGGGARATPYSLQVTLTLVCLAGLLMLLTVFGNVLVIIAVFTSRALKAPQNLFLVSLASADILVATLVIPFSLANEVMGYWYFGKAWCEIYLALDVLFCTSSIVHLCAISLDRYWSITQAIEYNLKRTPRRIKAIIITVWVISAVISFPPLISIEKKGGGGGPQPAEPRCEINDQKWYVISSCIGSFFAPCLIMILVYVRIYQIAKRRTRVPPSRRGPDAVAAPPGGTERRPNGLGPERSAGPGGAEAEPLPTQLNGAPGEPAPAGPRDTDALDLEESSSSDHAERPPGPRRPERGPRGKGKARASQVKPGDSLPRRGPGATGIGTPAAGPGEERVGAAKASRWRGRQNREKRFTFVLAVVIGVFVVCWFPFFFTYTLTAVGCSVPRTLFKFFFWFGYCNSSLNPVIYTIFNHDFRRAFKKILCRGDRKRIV
The experiment in a line: Radioligand binding experiment for α2A-adrenergic receptor ([3H]-raulwolscine). The following applies: membranes of CHO cells transfected with human α2A receptor; [3H]raulwolscine 1 nM. The protocol:
(§1) The interaction of the compounds of Formula (I) with hα2-receptors and h5-HT-transporters was assessed in in vitro radioligand binding experiments. In general, a low concentration of a radioligand with a high binding affinity for a particular receptor or transporter is incubated with a sample of a tissue preparation enriched in a particular receptor or transporter or with a preparation of cells expressing cloned human receptors in a buffered medium. During the incubation, the radioligand binds to the receptor or transporter. When equilibrium of binding is reached, the receptor bound radioactivity is separated from the non-bound radioactivity, and the receptor- or transporter-bound activity is counted. The interaction of the test compounds with the receptor is assessed in competition binding experiments. Various concentrations of the test compound are added to the incubation mixture containing the receptor- or transporter preparation and the radioligand. The test compound in proportion to its binding affinity and its concentration inhibits binding of the radioligand. The radioligand used for hα2A, hα2B and hα2C receptor binding was [^3H]-raulwolscine and for the h5-HT transporter was [^3H]paroxetine.
(§2) CHO cells, stabile transfected with human adrenergic-α2A-, -α2B or α2C receptor cDNA, were cultured in Dulbecco's Modified Eagle's Medium (DMEM)/Nutrient mixture Ham's F12 (ratio 1:1) (Gibco, Gent-Belgium) supplemented with 10% heat inactivated fetal calf serum (Life Technologies, Merelbeke-Belgium) and antibiotics (100 IU/ml penicillin G, 100 μg/ml streptomycin sulphate, 110 μg/ml pyruvic acid and 100 μg/ml L-glutamine). One day before collection, cells were induced with 5 mM sodiumbutyrate. Upon 80-90% of confluence, cells were scraped in phosphate buffered saline without Ca^2+ and Mg^2+ and collected by centrifugation at 1500×g for 10 min. The cells were homogenised in Tris-HCl 50 mM using an Ultraturrax homogenizer and centrifuged for 10 min at 23,500×g. The pellet was washed once by resuspension and rehomogenization and the final pellet was resuspended in Tris-HCl, divided in 1 ml aliquots and stored at −70° C.
(§3) Membranes were thawed and re-homogenized in incubation buffer (glycylglycine 25 mM, pH 8.0). In a total volume of 500 μl, 2-10 μg protein was incubated with [^3H]raulwolscine (NET-722) (New England Nuclear, USA) (1 nM final concentration) with or without competitor for 60 min at 25° C. followed by rapid filtration over GF/B filter using a Filtermate 196 harvester (Packard, Meriden, Conn.). Filters were rinsed extensively with ice-cold rinsing buffer (Tris-HCl 50 mM pH 7.4). Filter-bound radioactivity was determined by scintillation counting in a Topcount (Packard, Meriden, Conn.) and results were expressed as counts per minute (cpm). Non-specific binding was determined in the presence of 1 μM oxymetazoline for hα2A- and hα2B-receptors and 1 μM spiroxatrine for hα2C receptors.
(§4) Data from assays in the presence of compound were calculated as a percentage of total binding measured in the absence of test compound. Inhibition curves, plotting percent of total binding versus the log value of the concentration of the test compound, were automatically generated, and sigmoidal inhibition curves were fitted using non-linear regression. The pIC50 values of test compounds were derived from individual curves. All compounds according to Formula (I) produced an inhibition at least at the hα2A site (but often also at the hα2B and hα2C sites) and simultaneously at the 5-HT transporter site of more than 50% (PIC50) at a test concentration ranging between 10^−6 M and 10^−9 M in a concentration-dependent manner.

The next test addresses T2, hα2B receptor (Homo sapiens, UniProt P18089).
T2 construct: expressed in transfected cells
T2 sequence (P18089 1-450): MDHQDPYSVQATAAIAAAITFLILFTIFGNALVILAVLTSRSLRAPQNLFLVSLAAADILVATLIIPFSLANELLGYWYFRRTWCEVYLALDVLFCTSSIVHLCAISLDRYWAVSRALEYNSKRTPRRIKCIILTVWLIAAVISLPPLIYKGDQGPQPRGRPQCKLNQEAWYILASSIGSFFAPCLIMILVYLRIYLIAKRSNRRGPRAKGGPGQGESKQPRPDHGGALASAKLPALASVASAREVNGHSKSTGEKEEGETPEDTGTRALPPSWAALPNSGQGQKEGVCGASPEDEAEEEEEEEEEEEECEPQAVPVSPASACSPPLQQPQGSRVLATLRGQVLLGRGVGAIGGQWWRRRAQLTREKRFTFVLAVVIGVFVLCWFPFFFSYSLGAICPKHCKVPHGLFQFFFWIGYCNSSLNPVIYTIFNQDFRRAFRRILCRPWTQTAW
The experiment in a line: Radioligand binding experiment for α2B-adrenergic receptor ([3H]-raulwolscine). The conditions noted are these: membranes of CHO cells transfected with human α2B receptor; [3H]raulwolscine 1 nM. The protocol: as §1, §2, §3, §4

For another test, the target named is T3, hα2C receptor (Homo sapiens, UniProt P18825).
T3 construct: expressed in transfected cells
T3 sequence (P18825 1-462): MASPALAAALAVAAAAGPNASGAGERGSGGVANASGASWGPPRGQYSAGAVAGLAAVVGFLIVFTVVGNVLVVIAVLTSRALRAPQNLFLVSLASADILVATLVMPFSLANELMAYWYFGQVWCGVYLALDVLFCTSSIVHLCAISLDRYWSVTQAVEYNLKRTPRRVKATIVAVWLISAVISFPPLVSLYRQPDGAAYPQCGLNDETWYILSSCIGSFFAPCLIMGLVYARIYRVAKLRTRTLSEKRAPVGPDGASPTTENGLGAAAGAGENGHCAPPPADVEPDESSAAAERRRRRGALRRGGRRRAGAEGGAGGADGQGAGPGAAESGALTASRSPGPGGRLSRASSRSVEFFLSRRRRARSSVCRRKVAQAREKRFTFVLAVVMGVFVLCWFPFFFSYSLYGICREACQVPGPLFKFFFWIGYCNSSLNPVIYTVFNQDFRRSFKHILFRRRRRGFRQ
Put plainly: Radioligand binding experiment for α2C-adrenergic receptor ([3H]-raulwolscine). The conditions noted are these: membranes of CHO cells transfected with human α2C receptor; [3H]raulwolscine 1 nM. The protocol: as §1, §2, §3, §4

In a further test the target is T4, h5-HT transporter (Homo sapiens, UniProt P31645).
T4 construct: Human platelet membranes (Oceanix Biosciences Corporation, Hanover, Md., USA) were thawed; tissue Oceanix Biosciences Corporation; host or cells: human platelet membranes
Put plainly: Radioligand binding experiment for 5-HT transporter ([3H]paroxetine). The following applies: human platelet membranes; [3H]paroxetine 0.5 nM; read-out: 5-HTT (converted). The protocol: as §1
Human platelet membranes (Oceanix Biosciences Corporation, Hanover, Md., USA) were thawed, diluted in buffer (Tris-HCl 50 mM, 120 mM NaCl and 5 mM KCl) and quickly (max 3 s) homogenised with an Ultraturrax homogenizer. In a total volume of 250 μL, 50-100 μg protein was incubated with [^3H]paroxetine (NET-869) (New England Nuclear, USA) (0.5 nM final concentration) with or without competitor for 60 min at 25° C. Incubation was stopped by rapid filtration of the incubation mixture over GF/B filters, pre-wetted with 0.1% polyethyleneamine, using a Filtermate 196 harvester (Packard, Meriden, Conn.). Filters were rinsed extensively with ice-cold buffer and radioactivity on the filters was counted in a Topcount liquid scintillation counter (Packard, Meriden, Conn.). Data were expressed as cpm. Imipramine (at 1 μM final concentration) was used to determine the non-specific binding.
as §4

T4 sequence (P31645 whole entry): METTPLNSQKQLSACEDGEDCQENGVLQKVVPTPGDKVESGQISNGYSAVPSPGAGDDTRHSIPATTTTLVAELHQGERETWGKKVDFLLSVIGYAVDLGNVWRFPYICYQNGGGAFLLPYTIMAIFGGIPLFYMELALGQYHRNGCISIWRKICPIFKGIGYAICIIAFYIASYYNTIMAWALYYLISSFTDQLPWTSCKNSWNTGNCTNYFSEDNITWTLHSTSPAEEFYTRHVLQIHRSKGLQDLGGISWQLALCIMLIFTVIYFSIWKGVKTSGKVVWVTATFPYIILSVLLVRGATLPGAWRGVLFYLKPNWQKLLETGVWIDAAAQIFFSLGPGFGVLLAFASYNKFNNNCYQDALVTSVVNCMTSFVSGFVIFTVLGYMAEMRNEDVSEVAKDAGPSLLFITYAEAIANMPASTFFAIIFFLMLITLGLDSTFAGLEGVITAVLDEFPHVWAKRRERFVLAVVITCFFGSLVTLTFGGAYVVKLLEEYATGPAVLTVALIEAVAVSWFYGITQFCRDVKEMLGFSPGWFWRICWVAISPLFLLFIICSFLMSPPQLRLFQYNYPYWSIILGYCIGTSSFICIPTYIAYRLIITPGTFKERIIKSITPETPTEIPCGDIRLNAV

`C/C(=C\c1ccccc1)CN1CCN(C[C@@H]2ON=C3c4cccc(O)c4OC[C@H]32)CC1` (relative stereo) [Compound 7, 3-[4-(2-methyl-3-phenyl-allyl)-piperazin-1-ylmethyl]-3a,4-dihydro-3H-chromeno[4,3-c]isoxazol-6-ol]: the IC50 was 7.94 nM at hα2A receptor, 1.26 nM on hα2B receptor, 2 nM on hα2C receptor and 50.1 nM at h5-HT transporter.
On to `CC(=Cc1ccccc1)CN1CCN(CC2ON=C3c4cccc(OCCO)c4OCC32)CC1` (stereo not shown) [Compound 11], for which the IC50 was 3.16 nM on hα2A receptor, 2.51 nM on hα2B receptor, 3.16 nM at hα2C receptor and 50.1 nM on h5-HT transporter.
Regarding `CCNC(=O)OCCOc1cccc2c1OCC1C2=NOC1CN1CCN(CC(C)=Cc2ccccc2)CC1` (stereo not shown) [Compound 10], the IC50 at hα2A receptor is 79.4 nM; at hα2B receptor, 5.01 nM; on hα2C receptor, 6.31 nM; on h5-HT transporter, 39.8 nM.
For `COc1cc2c(c(N3CCN(C)CC3)c1OC)OC[C@@H]1C2=NO[C@H]1CN1CCN(C/C(C)=C/c2ccccc2)CC1` (single isomer, unassigned) [Compound 2, 7,8-dimethoxy-3-[4-(2-methyl-3-phenyl-allyl)-piperazin-1-ylmethyl]-6-(4-methyl-piperazin-1-yl)-3a,4-dihydro-3H-chromeno [4,3-c]isoxazole], the IC50 on hα2A receptor was 6.31 nM; at hα2B receptor, 1.58 nM; at hα2C receptor, 0.794 nM; on h5-HT transporter, 39.8 nM.
Taken in the same sequence, the figures for `CC(=Cc1ccccc1)CN1CCN(CC2ON=C3c4c(O)cccc4OCC32)CC1` (stereo not shown) [Compound 9] were 25.1 nM, 2 nM, 1.26 nM and 63.1 nM.
In the same order, the values of `COCC(=O)OCCOc1cccc2c1OCC1C2=NOC1CN1CCN(CC(C)=Cc2ccccc2)CC1` (single isomer, unassigned) [Compound 24] are 100 nM, 25.1 nM, 39.8 nM and 31.6 nM.
With `COCC(=O)OCCOc1cccc2c1C1=NOC(CN3CCN(CC(C)=Cc4ccccc4)CC3)C1CO2` (stereo not shown) [Compound 14], the IC50 was 2.51 nM on hα2A receptor, 3.16 nM on hα2B receptor, 1.26 nM on hα2C receptor and 1000 nM on h5-HT transporter.
Consider `COCC(=O)OCCOc1cccc2c1OCC1C2=NOC1CN1CCN(CC(C)=Cc2ccccc2)CC1` (stereo not shown) [Compound 12], for which the IC50 on hα2A receptor is 126 nM; on hα2B receptor, 6.31 nM; on hα2C receptor, 3.98 nM; on h5-HT transporter it was 126 nM.
`CC(=O)Nc1cccc2c1OCC1C2=NOC1CN1CCN(CC(C)=Cc2ccccc2)CC1` (stereo not shown) [Compound 22]: the IC50 on hα2A receptor was 31.6 nM; on hα2B receptor, 2 nM; at hα2C receptor it was 3.98 nM; on h5-HT transporter it was 25.1 nM.
For `COCC(=O)OCCOc1cccc2c1OCC1C2=NOC1CN1CCN(CC(C)=Cc2ccccc2)CC1` (single isomer, unassigned) [Compound 25], the IC50 on hα2A receptor is 39.8 nM; at hα2B receptor it was 1.58 nM; on hα2C receptor, 2 nM; on h5-HT transporter, 316 nM.
